Assay results reported in patent US7981919B2, “Tricyclic heteroaryl piperazines, pyrrolidines and azetidines as serotonin receptor modulators” (Athersys, Inc., priority 2004, dated 2011).

Target: T1, human 5HT2c receptor (VNV Isoform) (Homo sapiens, UniProt P28335, I156V/I160V, form not given)
T1 sequence (P28335 1-458 I156V/N158S/I160V): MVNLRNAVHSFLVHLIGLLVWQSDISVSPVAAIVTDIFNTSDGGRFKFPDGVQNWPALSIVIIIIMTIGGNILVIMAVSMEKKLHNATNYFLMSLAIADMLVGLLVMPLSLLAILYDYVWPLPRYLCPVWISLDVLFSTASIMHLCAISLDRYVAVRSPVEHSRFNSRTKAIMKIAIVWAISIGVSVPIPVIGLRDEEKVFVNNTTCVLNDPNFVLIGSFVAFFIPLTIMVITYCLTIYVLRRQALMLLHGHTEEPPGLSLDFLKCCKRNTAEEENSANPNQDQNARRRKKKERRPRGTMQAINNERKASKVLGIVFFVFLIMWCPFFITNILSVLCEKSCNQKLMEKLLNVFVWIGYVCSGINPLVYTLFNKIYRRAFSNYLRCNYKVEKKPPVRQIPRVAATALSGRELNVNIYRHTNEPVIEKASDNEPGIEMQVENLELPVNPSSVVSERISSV
Test: Calcium mobilization (FLIPR) 5HT2c receptor agonist assay in HEK 293 EBNA cells
Type: cell-based
Conditions: HEK 293 EBNA cells expressing human 5HT2c receptor, ligand-induced calcium release, read-out: 5-HT2c EC50 (hVSV)
Procedure: The following procedure was utilized to evaluate representative compounds of the present invention as 5HT2c receptor agonists.
5HT was utilized as a positive control. Ligand-induced calcium release and consequent fluorescence was measured on a Fluorometric Imaging Plate Reader (FLIPR, Molecular Device, CA).
All data were analyzed by nonlinear least square curve fitting using Prism 4.0 software. Agonist stimulation of calcium-induced fluorescence in FLIPR was fitted to sigmoidal dose response using equation Y=Bottom+(Top−Bottom)/(1+10 ? ((Log EC50−X))), where X is the logarithm of concentration of compounds and Y is the fluorescent response.

Row | Compound | EC50 [µM]
1 | Cc1c(Cl)sc2c1C(C)C1CNCC21 (single isomer, unassigned) [26, Enantiomer 2] | < 0.1
2 | Cc1sc2c(c1Br)C(C)C1CNCC21 (single isomer, unassigned) [27, Enantiomer 1] | < 1
3 | Cc1sc2c(c1Br)C(C)C1CNCC21 (single isomer, unassigned) [27, Enantiomer 2] | < 0.1
4 | Brc1cc2c(s1)CC1CNCCC21 (single isomer, unassigned) [28, Enantiomer 1] | < 10
5 | Brc1cc2c(s1)CC1CCNCC21 (single isomer, unassigned) [29, Enantiomer 2] | < 10
6 | Cc1sc2c(c1Br)C1CNCCC1C2 (single isomer, unassigned) [33, Enantiomer 1] | < 1
7 | Cc1sc2c(c1Br)C1CNCCC1C2 (single isomer, unassigned) [33, Enantiomer 2] | < 10
8 | CC1c2sccc2C2CNCC12 (single isomer, unassigned) [34, Enantiomer 1] | < 10
9 | CC1c2cc(Br)sc2C2CNCC12 (single isomer, unassigned) [36, Enantiomer 1] | < 1
10 | CC1c2cc(Br)sc2C2CNCC12 (single isomer, unassigned) [36, Enantiomer 2] | < 10
11 | Brc1csc2c1CC1CNCC21 (single isomer, unassigned) [37, Enantiomer 1] | < 1
12 | Brc1cc2c(s1)C1CNCC1C2 (single isomer, unassigned) [38, Enantiomer 1] | < 0.1
13 | FC(F)(F)c1sc2c(c1Br)CC1CNCC21 (single isomer, unassigned) [39, Enantiomer 2] | < 0.1
14 | Cc1c(C(F)(F)F)sc2c1CC1CNCC21 (single isomer, unassigned) [40, Enantiomer 2] | < 0.1
15 | COc1c(C(F)(F)F)sc2c1CC1CNCC21 (single isomer, unassigned) [41, Enantiomer 2] | < 0.1
16 | COc1c(Cl)sc2c1CC1CNCC21 (single isomer, unassigned) [42, Enantiomer 2] | < 10
17 | CC(C)(C)C(=O)c1sc2c(c1Br)CC1CNCC21 (single isomer, unassigned) [43, Enantiomer 2] | < 1
18 | c1ccc2c3c(sc2c1)C1CNCC1C3 (single isomer, unassigned) [45, Enantiomer 2] | < 1
19 | Cc1c(Br)sc2c1C1CNCC1CC2 (single isomer, unassigned) [46, Enantiomer 2] | < 1
20 | CCOC(=O)c1c(N)sc2c1CC1CNCC21 (stereo not drawn) [Example 1, 5-Amino-1,2,3,3a,7,7a-hexahydro-4-thia-2-aza-cyclopenta[α]pentalene-6-carboxylic acid ethyl ester] | < 0.1
21 | CCOC(=O)c1c(Br)sc2c1CC1CNCC21 (stereo not drawn) [Example 2, 5-Bromo-1,2,3,3a,7,7a-hexahydro-4-thia-2-aza-cyclopenta[α]pentalene-6-carboxylic acid ethyl ester] | < 0.1
22 | CCOC(=O)c1csc2c1CC1CNCC21 (stereo not drawn) [Example 3, 1,2,3,3a,7,7a-Hexahydro-4-thia-2-aza-cyclopenta[α]pentalene-6-carboxylic acid ethyl ester] | < 0.1

Row | Compound | EC50 [µM]
23 | CCOC(=O)c1c(Cl)sc2c1CC1CNCC21 (stereo not drawn) [Example 4, 5-Chloro-1,2,3,3a,7,7a-hexahydro-4-thia-2-aza-cyclopenta[α]pentalene-6-carboxylic acid ethyl ester] | < 0.1
24 | Nc1sc2c(c1C(=O)c1cccc(C(F)(F)F)c1)CC1CNCC21 (stereo not drawn) [Example 5, (5-Amino-1,2,3,3a,7,7a-hexahydro-4-thia-2-aza cyclopenta[α]-pentalen-6-yl)-(3-trifluoromethyl-phenyl)-methanone] | < 10
25 | Cc1ccc(C(=O)c2c(N)sc3c2CC2CNCC32)cc1 (stereo not drawn) [Example 6, (5-Amino-1,2,3,3a,7,7a-hexahydro-4-thia-2-aza-cyclopenta[α]-pentalen-6-yl)-p-tolyl-methanone] | < 1
26 | Nc1sc2c(c1C(=O)c1ccc(Cl)cc1)CC1CNCC21 (stereo not drawn) [Example 7, (5-Amino-1,2,3,3a,7,7a-hexahydro-4-thia-2-aza-cyclopenta[α]-pentalen-6-yl)-(4-chloro-phenyl)-methanone] | < 10
27 | COC(=O)c1cc2c(s1)C1CNCC1C2 (stereo not drawn) [Example 8, 1,2,3,3a,7,7a-Hexahydro-4-thia-2-aza-cyclopenta[α]pentalene-5-carboxylic acid methyl ester] | < 10
28 | c1cc2c(s1)C1CNCC1C2 (stereo not drawn) [Example 9, 1,2,3,3a,7,7a-Hexahydro-4-thia-2-aza-cyclopenta[α]pentalene] | > 10
29 | N#Cc1c(Cl)sc2c1C1CNCC1C2 (stereo not drawn) [Example 10, 2-Chloro-3b,4,5,6,6a,7-hexahydro-1-thia-5-aza-cyclopenta[α]pentalene-3-carbonitrile] | < 10
30 | N#Cc1c(Br)sc2c1C1CNCC1C2 (stereo not drawn) [Example 11, 2-Bromo-3b,4,5,6,6a,7-hexahydro-1-thia-5-aza-cyclopenta[α]pentalene-3-carbonitrile] | < 10
31 | N#Cc1c(Cl)sc2c1CC1CNCC21 (stereo not drawn) [Example 12, 5-Chloro-1,2,3,3a,7,7a-hexahydro-4-thia-2-aza-cyclopenta[α]pentalene-6-carbonitrile] | < 0.1
32 | N#Cc1c(Br)sc2c1CC1CNCC21 (centres unmarked) [Example 13, 5-Bromo-1,2,3,3a,7,7a-hexahydro-4-thia-2-aza-cyclopenta[ ]pentalene-6-carbonitrile] | < 0.1
33 | N#Cc1csc2c1CC1CNCC21 (stereo not drawn) [Example 14, 1,2,3,3a,7,7a-Hexahydro-4-thia-2-aza-cyclopenta[α]pentalene-6-carbonitrile] | < 1
34 | Cc1sc2c(c1Cl)CC1CNCC21 (stereo not drawn) [Example 15, 6-Chloro-5-methyl-1,2,3,3a,7,7a-hexahydro-4-thia-2-aza-cyclopenta[α]pentalene] | < 0.1
35 | Cc1c(Cl)sc2c1CC1CNCC21 (stereo not drawn) [Example 17, 5-Chloro-6-methyl-1,2,3,3a,7,7a-hexahydro-4-thia-2-aza-cyclopenta[α]pentalene] | < 0.1
36 | Brc1sc2c(c1Br)CC1CNCC21 (stereo not drawn) [Example 19, 5,6-Dibromo-1,2,3,3a,7,7a-hexahydro-4-thia-2-aza-cyclopenta[α]pentalene] | < 1
37 | COc1csc2c1CC1CNCC21 (stereo not drawn) [Example 20, 6-Methoxy-1,2,3,3a,7,7a-hexahydro-4-thia-2-aza-cyclopenta[α]pentalene] | < 1
38 | Brc1cc2c(s1)CC1CNCC21 (stereo not drawn) [Example 21, 2-Bromo-3b,4,5,6,6a,7-hexahydro-1-thia-5-aza-cyclopenta[α]pentalene] | < 0.1
39 | Brc1sc2c(c1Br)C1CNCC1C2 (stereo not drawn) [Example 22, 2,3-Dibromo-3b,4,5,6,6a,7-hexahydro-1-thia-5-aza-cyclopenta[α]pentalene] | < 0.1
40 | FC(F)(F)c1csc2c1C1CNCC1C2 (stereo not drawn) [Example 23, 3-Trifluoromethyl-3b,4,5,6,6a,7-hexahydro-1-thia-5-aza-cyclopenta[α]pentalene] | < 1
41 | CC1c2sc(Cl)cc2C2CNCC12 (stereo not drawn) [Example 24, 2-Chloro-7-methyl-3b,4,5,6,6a,7-hexahydro-1-thia-5-aza-cyclopenta[α]pentalene] | < 1
42 | CC1c2sc(I)cc2C2CNCC12 (stereo not drawn) [Example 25, 2-Iodo-7-methyl-3b,4,5,6,6a,7-hexahydro-1-thia-5-aza-cyclopenta[α]pentalene] | < 1
43 | Brc1cc2c(s1)C1CCNCC1C2 (stereo not drawn) [Example 31, 2-Bromo-4,5,6,7,7a,8-hexahydro-3bH-3-thia-6-aza-cyclopenta[α]indene] | < 1

Same assay, conditions: read-out: 5-HT2c EC50 (hVSV), HEK 293 EBNA cells expressing human 5HT2c receptor, ligand-induced calcium release

Row | Compound | EC50 [µM]
44 | Brc1cc2c(s1)C1CNCCC1C2 (single isomer, unassigned) [30, Enantiomer 2] | > 10
